Read-outs that look alike come from different tables or passages of the source.

Assay [1] addresses T1, FLT3 (Homo sapiens, UniProt P36888).
T1 construct: purchased PV3182
T1 sequence (P36888 27-993): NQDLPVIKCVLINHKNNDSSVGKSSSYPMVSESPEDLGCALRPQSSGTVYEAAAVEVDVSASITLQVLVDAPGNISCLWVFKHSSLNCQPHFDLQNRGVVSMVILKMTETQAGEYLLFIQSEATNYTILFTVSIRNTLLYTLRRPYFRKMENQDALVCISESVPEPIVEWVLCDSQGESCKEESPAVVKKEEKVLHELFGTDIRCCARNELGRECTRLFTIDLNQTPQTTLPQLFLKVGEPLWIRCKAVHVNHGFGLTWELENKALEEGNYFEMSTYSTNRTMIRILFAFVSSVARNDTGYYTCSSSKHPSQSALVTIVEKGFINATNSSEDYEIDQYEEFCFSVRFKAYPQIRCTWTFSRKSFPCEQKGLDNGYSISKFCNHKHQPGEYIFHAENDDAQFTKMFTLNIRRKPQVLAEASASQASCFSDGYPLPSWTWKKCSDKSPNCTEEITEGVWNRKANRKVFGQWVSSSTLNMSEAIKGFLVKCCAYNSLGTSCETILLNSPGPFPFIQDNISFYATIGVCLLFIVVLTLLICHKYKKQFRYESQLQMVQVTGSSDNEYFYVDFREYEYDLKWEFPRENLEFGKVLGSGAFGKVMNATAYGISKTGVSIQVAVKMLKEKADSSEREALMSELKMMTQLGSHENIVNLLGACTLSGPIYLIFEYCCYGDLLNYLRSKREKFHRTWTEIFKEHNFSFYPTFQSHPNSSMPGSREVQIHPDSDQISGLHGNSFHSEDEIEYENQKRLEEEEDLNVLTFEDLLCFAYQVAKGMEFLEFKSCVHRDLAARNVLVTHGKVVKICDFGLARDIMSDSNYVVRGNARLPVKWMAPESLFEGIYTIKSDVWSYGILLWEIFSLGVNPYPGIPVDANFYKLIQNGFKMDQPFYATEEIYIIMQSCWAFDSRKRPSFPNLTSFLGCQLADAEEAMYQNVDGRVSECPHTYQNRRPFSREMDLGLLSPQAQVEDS
The experiment in a line: FLT-3 Omnia continuous-read kinase assay. The assay is classed as biochemical. The protocol: (§1) A. KDR and FLT-3 Omnia Assay for Potency Assessment:
(§2) The protocol below describes a continuous-read kinase assay to measure inherent potency of Avila Therapeutics' compounds against active KDR and FLT-3 enzymes. The assay was performed substantially as described by the vendor (Invitrogen, Carlsbad, Calif.; http://www.invitrogen.com/content.cfm?pageid=11338.)
(§3) Briefly, 10× stocks of KDR from Invitrogen or BPS Bioscience (PV3660 or 40301) and FLT-3 (PV3182) enzymes, 1.13×ATP (AS001A) and Y9-Sox or Y12-Sox peptide substrates (KCZ1001) were prepared in 1× kinase reaction buffer consisting of 20 mM Tris, pH 7.5, 5 mM MgCl2, 1 mM EGTA, 5 mM β-glycerophosphate, 5% glycerol (10× stock, KB002A) and 0.2 mM DTT (DS001A). 5 μL of enzyme were pre-incubated in a Corning (#3574) 384-well, white, non-binding surface microtiter plate (Corning, N.Y.) for 30 min at 27° C. with a 0.5 μL volume of 50% DMSO and serially diluted compounds prepared in 50% DMSO. Kinase reactions were started with the addition of 45 μL of the ATP/Y9 or Y5-Sox peptide substrate mix and monitored every 30-90 seconds for 60 minutes at λex360/λem485 in a Synergy^4 plate reader from BioTek (Winooski, Vt.). At the conclusion of each assay, progress curves from each well were examined for linear reaction kinetics and fit statistics (R^2, 95% confidence interval, absolute sum of squares). Initial velocity (0 minutes to 20+ minutes) from each reaction was determined from the slope of a plot of relative fluorescence units vs time (minutes) and then plotted against inhibitor concentration to estimate IC50 from Log [Inhibitor] vs Response, Variable Slope model in GraphPad Prism from GraphPad Software (San Diego, Calif.).
[FLT-3]=15 nM, [ATP]=500 μM and [Y5-Sox peptide]=10 μM (ATP KMapp=470 μM)
(§4) The reported IC50_APP and IC50 values are in units of nM.

Assay [2] has as its target CKIT (Homo sapiens, UniProt P10721). The experiment in a line: c-Kit Omnia kinase assay. The settings on record: read-out: IC50_APP CKIT. It counts as biochemical.
For assay [3], the target named is CKIT D816V (Homo sapiens, UniProt P10721, D816V). Briefly: c-Kit mutant Omnia kinase assay. The settings on record: read-out: IC50_APP CKIT D816V. The assay is classed as biochemical.
CKIT D816V, sequence (P10721 26-976 D816V): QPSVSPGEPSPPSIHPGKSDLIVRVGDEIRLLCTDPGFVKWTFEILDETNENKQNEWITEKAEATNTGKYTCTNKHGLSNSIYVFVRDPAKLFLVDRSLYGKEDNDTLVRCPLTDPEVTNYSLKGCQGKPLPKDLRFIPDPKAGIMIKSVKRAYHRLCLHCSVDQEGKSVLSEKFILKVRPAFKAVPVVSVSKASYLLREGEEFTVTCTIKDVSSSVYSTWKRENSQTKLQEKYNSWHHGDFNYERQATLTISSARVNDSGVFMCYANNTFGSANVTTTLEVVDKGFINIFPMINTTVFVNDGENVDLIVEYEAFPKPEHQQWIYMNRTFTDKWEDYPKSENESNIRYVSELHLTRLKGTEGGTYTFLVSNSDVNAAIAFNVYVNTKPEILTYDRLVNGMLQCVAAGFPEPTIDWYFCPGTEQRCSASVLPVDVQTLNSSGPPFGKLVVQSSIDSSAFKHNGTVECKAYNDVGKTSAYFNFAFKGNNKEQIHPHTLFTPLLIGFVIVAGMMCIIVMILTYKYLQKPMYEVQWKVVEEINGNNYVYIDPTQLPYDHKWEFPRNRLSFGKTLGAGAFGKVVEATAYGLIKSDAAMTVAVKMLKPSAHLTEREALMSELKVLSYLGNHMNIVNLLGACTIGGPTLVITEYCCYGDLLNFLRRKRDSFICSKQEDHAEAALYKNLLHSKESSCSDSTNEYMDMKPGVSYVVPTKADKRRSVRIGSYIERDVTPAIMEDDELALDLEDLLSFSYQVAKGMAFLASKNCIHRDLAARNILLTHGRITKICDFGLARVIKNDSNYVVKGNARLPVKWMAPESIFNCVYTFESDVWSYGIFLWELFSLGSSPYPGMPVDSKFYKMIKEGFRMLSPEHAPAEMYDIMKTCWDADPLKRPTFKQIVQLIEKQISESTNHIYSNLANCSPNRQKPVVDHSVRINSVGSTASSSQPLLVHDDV
The target of assay [4] is KDR (Homo sapiens, UniProt P35968). Briefly: KDR Omnia continuous-read kinase assay. It counts as biochemical. On the set-up: purchased Invitrogen or BPS Bioscience PV3660 or 40301. The protocol:
as §1, §2
as §3, with “Calif.). […]” for “Calif.).”
as §4

For assay [5], the target named is FAK (PTK2) (Homo sapiens, UniProt Q05397). The experiment in a line: Mass spectral analysis of intact FAK after incubation with compound. The assay is classed as binding. The settings on record: 1 hr, 10× excess of compound to protein, intact protein MALDI. The protocol: Intact FAK (PTK2) was incubated for 1 hr at a 10× fold access of compound IV-29 to protein. 3 ul aliquots of the samples were diluted with 10 ul of 0.1% TFA prior to micro C4 ZipTipping directly onto the MALDI target using Sinapinic acid as the desorption matrix (10 mg/ml in 0.1% TFA:Acetonitrile 50:50). Mass spec analysis was run on intact FAK (PTK2) protein (m/z 146,672 Da), and on FAK that was incubated with compound IV-29 (mw=669.2).
FAK (PTK2), sequence (Q05397 whole entry): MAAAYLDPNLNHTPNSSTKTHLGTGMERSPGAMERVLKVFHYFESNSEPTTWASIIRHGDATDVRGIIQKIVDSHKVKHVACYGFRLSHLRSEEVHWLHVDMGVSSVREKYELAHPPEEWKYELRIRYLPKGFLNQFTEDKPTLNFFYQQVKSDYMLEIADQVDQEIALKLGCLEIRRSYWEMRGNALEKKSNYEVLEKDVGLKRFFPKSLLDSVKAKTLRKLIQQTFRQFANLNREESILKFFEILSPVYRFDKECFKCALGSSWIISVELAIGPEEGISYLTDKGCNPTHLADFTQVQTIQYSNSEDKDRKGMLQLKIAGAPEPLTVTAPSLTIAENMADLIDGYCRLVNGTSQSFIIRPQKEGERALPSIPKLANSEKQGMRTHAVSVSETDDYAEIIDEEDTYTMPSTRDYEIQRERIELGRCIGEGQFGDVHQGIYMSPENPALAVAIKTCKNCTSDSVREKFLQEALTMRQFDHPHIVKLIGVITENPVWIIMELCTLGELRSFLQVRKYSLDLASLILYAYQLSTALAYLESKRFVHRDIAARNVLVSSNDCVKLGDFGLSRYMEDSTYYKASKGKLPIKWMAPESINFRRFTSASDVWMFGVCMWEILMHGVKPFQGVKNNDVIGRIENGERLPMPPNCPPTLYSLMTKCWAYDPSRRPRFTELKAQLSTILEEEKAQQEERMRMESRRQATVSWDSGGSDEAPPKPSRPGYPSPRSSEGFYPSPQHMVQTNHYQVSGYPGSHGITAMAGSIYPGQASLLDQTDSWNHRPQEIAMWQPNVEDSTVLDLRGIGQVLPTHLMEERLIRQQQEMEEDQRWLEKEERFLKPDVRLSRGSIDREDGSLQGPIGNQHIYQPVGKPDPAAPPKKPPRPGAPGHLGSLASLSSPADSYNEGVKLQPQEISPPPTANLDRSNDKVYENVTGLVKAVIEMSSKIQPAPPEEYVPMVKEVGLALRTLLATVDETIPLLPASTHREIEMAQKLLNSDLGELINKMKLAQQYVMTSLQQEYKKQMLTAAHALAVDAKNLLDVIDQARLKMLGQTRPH

Assay [6] concerns the target BTK (Homo sapiens, UniProt Q06187). The experiment in a line: Omnia assay for potency assessment against BTK. It counts as biochemical.
Text: B. Omnia Assay Protocol for Potency Assessment Against BTK
Below describes the protocol using EGFR-WT and EGFR-T790M/L858R and the protocol BTK-optimized reagent conditions then follow.
The mechanics of the assay platform are best described by the vendor (Invitrogen, Carlsbad, Calif.) on their website at the following URL: http://www.invitrogen.com/content.cfm?pageid=11338 or http://www.invitrogen.com/site/us/en/home/Products-and-Services/Applications/Drug-Discovery/Target-and-Lead-Identification-and-Validation/KinaseBiology/KB-Misc/Biochemical-Assays/Omnia-Kinase-Assays.html.
Briefly, 10× stocks of EGFR-WT (PV3872) from Invitrogen and EGFR-T790M/L858R (40350) from BPS Bioscience, San Diego, Calif., 1.13×ATP (AS001A) and appropriate Tyr-Sox conjugated peptide substrates (KCZ1001) were prepared in 1× kinase reaction buffer consisting of 20 mM Tris, pH 7.5, 5 mM MgCl2, 1 mM EGTA, 5 mM β-glycerophosphate, 5% glycerol (10× stock, KB002A) and 0.2 mM DTT (DS001A). 5 μL of each enzyme were pre-incubated in a Corning (#3574) 384-well, white, non-binding surface microtiter plate (Corning, N.Y.) for 30 min. at 27° C. with a 0.5 μL volume of 50% DMSO and serially diluted compounds prepared in 50% DMSO. Kinase reactions were started with the addition of 45 μL of the ATP/Tyr-Sox peptide substrate mix and monitored every 30-90 seconds for 60 minutes at λex360/λem485 in a Synergy^4 plate reader from BioTek (Winooski, Vt.). At the conclusion of each assay, progress curves from each well were examined for linear reaction kinetics and fit statistics (R^2, 95% confidence interval, absolute sum of squares). Initial velocity (0 minutes to ˜30 minutes) from each reaction was determined from the slope of a plot of relative fluorescence units vs time (minutes) and then plotted against inhibitor concentration to estimate IC50 from log [Inhibitor] vs Response, Variable Slope model in GraphPad Prism from GraphPad Software (San Diego, Calif.).
The modified BTK-optimized reagent conditions for the above protocol are:
[BTK]=5 nM, [ATP]=[…], [Y5-Sox]=[…] (ATP KMapp˜[…]).
as §4

[7] abbreviates: 30 min pre-incubation, [ATP]=500 μM, read-out: IC50_APP FLT3.
[8] abbreviates: 30 min pre-incubation, read-out: IC50_APP KDR.
The mark [9] stands for this setting: 30 min pre-incubation, read-out: IC50_APP BTK.
[10] abbreviates: reversible reference compounds, read-out: IC50 BTK.
[11] abbreviates: reversible reference compounds, read-out: IC50 KDR.

BTK, sequence (Q06187 whole entry): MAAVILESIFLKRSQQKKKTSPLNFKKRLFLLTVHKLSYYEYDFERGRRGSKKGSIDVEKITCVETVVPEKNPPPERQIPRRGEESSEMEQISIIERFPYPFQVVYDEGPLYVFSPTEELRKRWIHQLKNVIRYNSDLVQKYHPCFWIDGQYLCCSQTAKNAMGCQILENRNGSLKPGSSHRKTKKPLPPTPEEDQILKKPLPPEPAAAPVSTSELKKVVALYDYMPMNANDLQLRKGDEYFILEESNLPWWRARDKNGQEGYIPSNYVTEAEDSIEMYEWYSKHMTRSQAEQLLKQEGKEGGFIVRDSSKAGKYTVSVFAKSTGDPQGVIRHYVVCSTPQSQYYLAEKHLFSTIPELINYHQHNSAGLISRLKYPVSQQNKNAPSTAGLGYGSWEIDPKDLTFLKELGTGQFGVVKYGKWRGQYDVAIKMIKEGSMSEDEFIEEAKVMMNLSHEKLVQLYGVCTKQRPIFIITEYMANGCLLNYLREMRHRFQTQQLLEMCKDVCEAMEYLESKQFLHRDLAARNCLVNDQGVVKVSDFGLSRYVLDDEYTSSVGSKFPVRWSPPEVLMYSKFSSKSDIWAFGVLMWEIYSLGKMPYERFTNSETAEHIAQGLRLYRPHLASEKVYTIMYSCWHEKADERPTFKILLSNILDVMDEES
KDR, sequence (P35968 20-1356): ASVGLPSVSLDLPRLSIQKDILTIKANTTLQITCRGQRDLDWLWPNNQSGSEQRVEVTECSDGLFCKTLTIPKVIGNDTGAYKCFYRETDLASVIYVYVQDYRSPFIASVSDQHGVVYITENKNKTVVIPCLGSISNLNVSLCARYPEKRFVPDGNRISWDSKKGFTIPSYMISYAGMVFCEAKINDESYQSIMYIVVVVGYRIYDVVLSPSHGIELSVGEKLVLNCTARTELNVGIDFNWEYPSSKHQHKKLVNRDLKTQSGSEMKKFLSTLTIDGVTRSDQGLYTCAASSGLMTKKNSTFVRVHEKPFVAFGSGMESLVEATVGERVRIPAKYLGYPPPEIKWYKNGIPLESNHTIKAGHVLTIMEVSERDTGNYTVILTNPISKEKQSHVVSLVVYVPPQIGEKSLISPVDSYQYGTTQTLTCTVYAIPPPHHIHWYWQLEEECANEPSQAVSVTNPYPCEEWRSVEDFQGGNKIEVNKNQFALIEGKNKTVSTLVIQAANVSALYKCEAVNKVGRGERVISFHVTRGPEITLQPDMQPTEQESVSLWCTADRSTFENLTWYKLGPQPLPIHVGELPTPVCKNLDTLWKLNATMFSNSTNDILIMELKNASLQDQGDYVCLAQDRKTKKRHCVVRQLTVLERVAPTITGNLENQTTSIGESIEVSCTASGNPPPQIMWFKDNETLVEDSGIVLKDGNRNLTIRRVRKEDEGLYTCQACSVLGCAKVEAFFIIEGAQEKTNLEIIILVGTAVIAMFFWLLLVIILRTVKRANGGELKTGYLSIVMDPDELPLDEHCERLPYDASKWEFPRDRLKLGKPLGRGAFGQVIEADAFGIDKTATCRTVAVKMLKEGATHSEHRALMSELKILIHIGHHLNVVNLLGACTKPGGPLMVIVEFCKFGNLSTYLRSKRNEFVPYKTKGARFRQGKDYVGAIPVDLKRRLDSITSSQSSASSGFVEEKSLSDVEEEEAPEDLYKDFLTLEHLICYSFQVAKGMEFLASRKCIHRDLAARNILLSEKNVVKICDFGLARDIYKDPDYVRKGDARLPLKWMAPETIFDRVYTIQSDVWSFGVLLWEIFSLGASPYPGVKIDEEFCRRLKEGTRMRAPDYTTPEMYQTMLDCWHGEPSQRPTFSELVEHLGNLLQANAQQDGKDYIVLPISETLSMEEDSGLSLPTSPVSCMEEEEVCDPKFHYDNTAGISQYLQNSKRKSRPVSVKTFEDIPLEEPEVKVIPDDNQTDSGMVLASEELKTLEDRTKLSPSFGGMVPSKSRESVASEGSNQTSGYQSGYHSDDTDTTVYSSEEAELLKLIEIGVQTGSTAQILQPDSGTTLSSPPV
CKIT, sequence (P10721 26-976): as the sequence (P10721 26-976 D816V) above, with V791D counted along it

Consider `CNC(=O)c1cc(Oc2ccc(NC(=O)Nc3ccc(NC(=O)/C=C/CN(C)C)c(C(F)(F)F)c3)cc2)ccn1` [XVIII-12], for which the IC50 in assay [1] (setting [7]) came out at 0.00107 µM; in assay [2], 0.0104 µM; in assay [3], 0.0025 µM; in assay [4] (setting [8]), 0.148 µM.
Turning to `C=CC(=O)Nc1ccc(S(=O)(=O)N2CCN(c3ccc(Nc4ncc(Cl)c(Nc5ccccc5C(=O)NC)n4)c(OC)c3)CC2)cc1` [IV-31, 2-(2-{4-[4-(4-Acryloylamino-benzenesulfonyl)-piperazin-1-yl]-2-methoxy-phenylamino}-5-chloro-pyrimidin-4-ylamino)-N-methyl-benzamide], the “modification of FAK (PTK2) by compound, mass spec” value in assay [5] was “partial modification of FAK”.
Take `C=CC(=O)Nc1ccc(Sc2nc(Nc3ncc(C#N)s3)cc(N3CCN(C)CC3)n2)cc1` [II-1, N-(4-(4-(5-Cyanothiazol-2-ylamino)-6-(4-methylpiperazin-1-yl)pyrimidin-2-ylthio)phenyl)acrylamide]: the IC50 came out at 0.00315 µM in assay [1] (setting [7]), 6.17 µM in assay [6] (setting [9]) and 0.0393 µM in assay [4] (setting [8]).
As to `CCC(=O)N1CCC(Sc2nc(Nc3ncc(C#N)s3)cc(N3CCN(C)CC3)n2)CC1` [Reversible Reference Compound 2, 2-(2-(1-Propionylpiperidin-4-ylthio)-6-(4-methylpiperazin-1-yl)pyrimidin-4-ylamino)thiazole-5-carbonitrile, reference compound], the results for the IC50 in assay [6] (setting [10]) and in assay [4] (setting [11]) were 0.184 µM and 0.0957 µM, respectively.
On to `C=CC(=O)N(C)c1ccc(NC(=O)Nc2ccc(Oc3ccnc(C(=O)NC)c3)cc2)cc1` [XVIII-16, 4-(4-(3-(4-(N-methylacrylamido)phenyl)ureido)phenoxy)-N-methylpicolinamide], for which the IC50 in assay [4] (setting [8]) is 1.34 µM.
On to `C=CC(=O)Nc1ccc(Sc2nc(Nc3cc(C)n[nH]3)cc(N3CCN(C)CC3)n2)cc1` [II-53, N-(4-(4-(3-Methyl-1H-pyrazol-5-ylamino)-6-(4-methylpiperiazin-1-yl)pyrimidin-2ylthio)phenyl)acrylamide], for which the IC50 in assay [1] (setting [7]) is 0.00376 µM; in assay [2], 0.114 µM; in assay [3], 0.127 µM; in assay [4] (setting [8]), 0.0152 µM.
In the case of `C=CC(=O)NCCSc1nc(Nc2ncc(C#N)s2)cc(N2CCN(C)CC2)n1` [II-4, N-(2-(4-(5-cyanothiazol-2-ylamino)-6-(4-methylpiperazin-1-yl)pyrimidin-2-ylthio)ethyl)acrylamide], the IC50 in assay [6] (setting [9]) stood at 5.08 µM; in assay [4] (setting [8]), 0.111 µM.
On the same counts, the results for `CN(C)C/C=C/C(=O)N1CCC(Sc2nc(Nc3ncc(C#N)s3)cc(N3CCN(C)CC3)n2)CC1` [II-5] are 0.106 µM and 0.0397 µM.
The matching figures for `CC#CC(=O)N1CCC(Sc2nc(Nc3ncc(C#N)s3)cc(N3CCN(C)CC3)n2)CC1` [II-3]: 0.459 µM and 0.29 µM.
For the compound `C=CC(=O)Nc1cc(NC(=O)Nc2ccc(Oc3ccnc(C(=O)NC)c3)cc2)ccc1Cl` [XVIII-15], the IC50 in assay [4] (setting [8]) was 0.462 µM.
As to `CCC(=O)Nc1ccc(Sc2nc(Nc3ncc(C#N)s3)cc(N3CCN(C)CC3)n2)cc1` [Reversible Reference Compound 1, N-(4-(4-(5-Cyanothiazol-2-ylamino)-6-(4-methylpiperazin-1-yl)pyrimidin-2-ylthio)phenyl)propionamide, reference compound], the IC50 came to 0.00584 µM in assay [1] (reversible reference compounds, read-out: IC50 FLT3); 1.64 µM in assay [6] (setting [10]); 0.254 µM in assay [4] (setting [11]).

The values above are taken from US10662195B2, “Protein kinase conjugates and inhibitors” (Celgene Avilomics Research, Inc., priority 2009, dated 2020).
